{"source": "patent US20130150317A1", "about": "“COMPOUNDS FOR THE TREATMENT OF RENAL CELL CARCINOMA” (Myrovlytis Technology Ventures Limited, priority 2010, published 2013)", "key": {"[1]": {"test_system": "FTC-133 cells transfected with empty vector", "assay": "SRB growth inhibition in FTC-133 cells, empty vector", "format": "cell-based, human", "settings": "for GI50: Homo sapiens; for differential sensitivity in FTC-133 cells with different levels of FLCN expression (in words): SRB assay", "from_the_text": "(§1) Human renal carcinoma of BHD origin cells UOK-257 (UOK-FLCN^−) and FLCN transfected UOK-257 cells UOK-FLCN^+ (Yang et al Cancer Genet Cytogenet. 2008 Jan. 15; 180(2):100-9) were provided by Dr Marston Linehan and Dr. Laura S Schmidt (Urologic Oncology Branch, Centre for Cancer Research, National Cancer Institute, National Institutes of Health, Bethesda, Md. 20892, USA). UOK-257 is the only RCC cell line that has been derived from a patient with BHD and harbours a germline FLCN frameshift mutation (c.1285dupC) (predicted, in the absence of nonsense mediated mRNA decay, to lead to premature protein truncation (p.His429ProfsX27) (Yang et al., Cancer Genet Cytogenet, 2008 Jan. 15; 180(2):100-9). We are not aware of any sporadic RCC cell lines with homozygous FLCN inactivation. FTC-133 cells were purchased from ECACC (Salisbury, United Kingdom). These cells are a non-RCC cell line derived from human thyroid carcinoma. 786-0 cells were available from the author's lab (Clifford et al., Hum Mol Genet. 2001 May 1; 10(10):1029-38). 786-O is a kidney cancer cell line that harbours an inactivating VHL gene mutation (c.311delG p.G104fs*55). All cell lines were cultured in DMEM with supplement of 10% foetal bovine serum except for FTC-133 cells which were incubated in medium with DMEM and Hens (1:1).\n(§2) The sensitivity of the cell lines to drug-induced cell growth inhibition was determined using the sulphorhodamine B assay (SRB) as described by Lu et al., Clin Cancer Res. 2001:7:2114-23. Briefly, adherent exponentially growing cells were seeded into 96-well plates at 3-5×10^3 cells/100 μl/well. […] The absorbance per well was measured at 570 nm on a Victor X3 Multilabel Plate Reader (PerkinElmor, Beaconsfield, United Kingdom).\n(§3) A FLCN containing construct was introduced into parental FTC-133 cells and stably transfected cells were selected. SRB growth inhibition assay was carried out in cells transfected with empty vector and low FLCN and high FLCN expression.\nas §3"}, "[2]": {"test_system": "FTC-133 cells with FLCN expressed at low levels", "assay": "SRB growth inhibition in FTC-133 cells, low FLCN expression", "format": "cell-based", "settings": "Homo sapiens, SRB assay", "from_the_text": "as §1, with “786-O is a kidney cancer cell line that harbours an inactivating VHL gene mutation (c.311delG p.G104fs*55). All cell lines were cultured in DMEM with supplement of 10% foetal bovine serum except for FTC-133 cells which were incubated in medium with DMEM and Hens (1:1).” left out\n(§4) The sensitivity of the cell lines to drug-induced cell growth inhibition was determined using the sulphorhodamine B assay (SRB) as described by Lu et al., Clin Cancer Res. 2001:7:2114-23. […] The absorbance per well was measured at 570 nm on a Victor X3 Multilabel Plate Reader (PerkinElmor, Beaconsfield, United Kingdom). […]"}, "UOK257-FLCN^+ cells [3]": {"test_system": "UOK257-FLCN^+ cells", "assay": "Clonogenic cell survival assay in UOK257-FLCN^+ cells", "format": "cell-based, human", "settings": "72 hrs exposure", "from_the_text": "Colonies with over 30 cells were counted."}, "UOK257-FLCN^+ cells [4]": {"test_system": "UOK257-FLCN^+ cells", "assay": "SRB growth inhibition assay in UOK257-FLCN^+ cells", "format": "cell-based, human", "from_the_text": "as §1\n(§5) The sensitivity of the cell lines to drug-induced cell growth inhibition was determined using the sulphorhodamine B assay (SRB) as described by Lu et al., Clin Cancer Res. 2001:7:2114-23. Briefly, adherent exponentially growing cells were seeded into 96-well plates at 3-5×10^3 cells/100 μl/well. After 20-24 h at 37° C., drugs were added at the appropriate drug concentrations to the wells (final DMSO conc. 1%) as indicated in the Results section. […] The absorbance per well was measured at 570 nm on a Victor X3 Multilabel Plate Reader (PerkinElmor, Beaconsfield, United Kingdom).\nUOK-257 is the only RCC cell line that has been derived from a patient with BHD and harbours a germline FLCN frameshift mutation (c.1285dupC) (predicted, in the absence of nonsense mediated mRNA decay, to lead to premature protein truncation (p.His429ProfsX27) (Yang et al Cancer Genet Cytogenet, 2008 Jan. 15; 180(2):100-9). Both UOK257-FLCN^− and UOK257-FLCN^+ cells were examined for their sensitivities to growth inhibition induced by 15 compounds selected from the COMPARE analysis. Various concentrations of compounds were introduced into the cells 24 hrs after seeding, incubation was continued for 72 hours and growth inhibition was assessed using the suiphorhodamine B (SRB) assay. GI50 values, defined as the concentration of compounds required to inhibit growth by 50%, were then calculated. The ratio of GI50 value from UOK257-FLCN^+ and UOK257-FLCN^− were calculated and used as an indicator for the sensitivity to FLCN mutant cells."}, "UOK257-FLCN^− cells [5]": {"test_system": "UOK257-FLCN^− cells", "assay": "SRB growth inhibition assay in UOK257-FLCN^− cells", "format": "cell-based, human", "settings": "for GI50: Homo sapiens", "from_the_text": "as §1, §2\nGI50 values, defined as the concentration of compounds required to inhibit growth by 50%, were then calculated. The ratio of GI50 value from UOK257-FLCN^+ and UOK257-FLCN^− were calculated and used as an indicator for the sensitivity to FLCN mutant cells."}, "[6]": {"test_system": "FTC-133 cells with FLCN expressed at high levels", "assay": "SRB growth inhibition in FTC-133 cells, high FLCN expression", "format": "cell-based", "settings": "Homo sapiens, SRB assay", "from_the_text": "as §1, with “786-O is a kidney cancer cell line that harbours an inactivating VHL gene mutation (c.311delG p.G104fs*55). All cell lines were cultured in DMEM with supplement of 10% foetal bovine serum except for FTC-133 cells which were incubated in medium with DMEM and Hens (1:1).” left out\nas §4"}, "[7]": {"test_system": "786-O cells expressing wt VHL", "assay": "SRB growth inhibition in 786-O cells expressing wt VHL", "format": "cell-based", "settings": "Homo sapiens, 786-0; SRB assay, 72 hours", "from_the_text": "as §1, with “786-O is a kidney cancer cell line that harbours an inactivating VHL gene mutation (c.311delG p.G104fs*55). All cell lines were cultured in DMEM with supplement of 10% foetal bovine serum except for FTC-133 cells which were incubated in medium with DMEM and Hens (1:1).” left out\nas §4"}, "UOK257-FLCN^− cells [8]": {"test_system": "UOK257-FLCN^− cells", "assay": "Clonogenic cell survival assay in UOK257-FLCN^− cells", "procedure": "The final concentration of DMSO in the medium was 1%. Four dishes with two seeding densities for each drug concentration were used and at least three experiments were carried out under each set of conditions. […] The cells were incubated for an additional 10-16 days until visible colonies appeared, which were fixed with Carnoy's fixative (methanol:acetic acid 3:1, v:v), and visualized by staining cells in sulphorhodamine B (0.4%). Colonies with over 30 cells were counted. […] Cell survival following drug exposure was expressed as % control cloning efficiency or survival."}, "UOK-FLCN^+ cells": {"test_system": "UOK-FLCN^+ cells", "settings": "4×GI50 mithramycin, no rapamycin", "procedure": "At the end of the time course, media was carefully removed and cells were fixed in 85% ice-cold ethanol. After removal of ethanol, cells were incubated in the dark at 37° C. for 20 minutes in PBS buffers containing 0.1% Triton X-100, 100 mg/mL RNase A and 10 mg/mL Propidium iodide (PI). The 96-well plates were subsequently scanned using the Acumen eX3 cytometer (TTP LabTech)."}, "[9]": {"test_system": "786-O cells with mutant VHL", "assay": "SRB growth inhibition in 786-O cells with mutant VHL", "format": "cell-based, human", "from_the_text": "as §1, §5\nCells were exposed continuously to various concentrations of drugs for 72 hours. GI50 values were determined as the concentrations at 50% growth inhibition from at least three experiments."}}, "note": "Like-named read-outs stand apart in the source and are kept apart here."}
{"molecule": "CO[C@H](C(=O)[C@@H](O)[C@@H](C)O)C1Cc2cc3cc(OC4CC(OC5CC(O)C(O)C(C)O5)C(O)C(C)O4)c(C)c(O)c3c(O)c2C(=O)[C@H]1OC1CC(OC2CC(OC3CC(C)(O)C(O)C(C)O3)C(O)C(C)O2)C(O)C(C)O1", "note": "(stereo partly shown) [mithramycin, Mithramycin]", "values": [{"measurement": "GI50", "setting": "[1]; FTC-133, 72 h, read-out: GI50 in FTC-133 cells, empty vector", "result": "59.3 ± 8.9", "unit": "nM"}, {"measurement": "GI50", "setting": "[1]; FTC-133, read-out: GI50 in FTC-133 cells, empty vector", "result": "59.3 ± 8.9", "unit": "nM"}, {"measurement": "differential sensitivity in FTC-133 cells with different levels of FLCN expression (in words)", "setting": "[1]", "result": "no apparent differential mithramycin sensitivity"}, {"measurement": "differential sensitivity in FTC-133 cells with different levels of FLCN expression (in words)", "setting": "[1]; listed as Mithramycin", "result": "does not show genotypic selective growth inhibitory activity"}, {"measurement": "GI50", "setting": "[2]", "result": "38.7 ± 10.4", "unit": "nM"}, {"measurement": "GI50", "setting": "[2]; 72 hours", "result": "38.7 ± 10.4", "unit": "nM"}, {"measurement": "cell survival (clonogenic), UOK257-FLCN^+ cells", "setting": "UOK257-FLCN^+ cells [3]; 200 nM", "result": "more than 85%"}, {"measurement": "cells able to form colonies, UOK257-FLCN^+ cells", "setting": "UOK257-FLCN^+ cells [3]; 500 nM", "result": "more than 60%"}, {"measurement": "cells survived (clonogenic), UOK257-FLCN^+ cells", "setting": "UOK257-FLCN^+ cells [3]; 5000 nM", "result": "more than 4%"}, {"measurement": "GI50", "setting": "UOK257-FLCN^+ cells [4]; 72 hours continuous exposure, mean ± SE (n), read-out: GI50 nM in UOK-FLCN^+", "result": "634 ± 148", "unit": "nM"}, {"measurement": "GI50", "setting": "UOK257-FLCN^+ cells [4]; Homo sapiens, 72 h, 72 hours continuous exposure, mean ± SE (n), read-out: GI50 nM in UOK-FLCN^+", "result": "634 ± 148", "unit": "nM"}, {"measurement": "GI50", "setting": "UOK257-FLCN^+ cells [4]; Homo sapiens, read-out: GI50 in FLCN-wt UOK257 cells", "result": "634 ± 148", "unit": "nM"}, {"measurement": "GI50", "setting": "UOK257-FLCN^− cells [5]; 72 h, read-out: GI50 nM in UOK-FLCN^−", "result": "64.2 ± 7.9", "unit": "nM"}, {"measurement": "GI50", "setting": "UOK257-FLCN^− cells [5]; 72 h, read-out: GI50 in UOK257-FLCN^− cells, rapamycin combination experiment", "result": "69 ± 10", "unit": "nM"}, {"measurement": "GI50", "setting": "UOK257-FLCN^− cells [5]; read-out: GI50 in FLCN-null UOK257 cells", "result": "64.2 ± 7.9", "unit": "nM"}, {"measurement": "GI50 Ratio of UOK-FLCN^+/UOK-FLCN^−", "setting": "UOK257-FLCN^− cells [5]; ratio>1 = more inhibitory to FLCN^− cells", "result": 9.88}, {"measurement": "GI50", "setting": "[6]", "result": "35.3 ± 7.3", "unit": "nM"}, {"measurement": "GI50", "setting": "[6]; 72 hours", "result": "35.3 ± 7.3", "unit": "nM"}, {"measurement": "GI50", "setting": "[7]", "result": "299 ± 17", "unit": "nM"}, {"measurement": "fold more cytotoxic to FLCN-null than FLCN-wild type UOK257 cells (clonogenic survival)", "setting": "UOK257-FLCN^− cells [8]; 200 nM where stated", "result": "~10", "unit": "fold"}, {"measurement": "viable cells (clonogenic survival), UOK-257 cells without FLCN expression", "setting": "UOK257-FLCN^− cells [8]; 200 nM, 72 hrs exposure", "result": "less than 8%"}, {"measurement": "cells survived (clonogenic), UOK257-FLCN^− cells", "setting": "UOK257-FLCN^− cells [8]; 500 nM, 72 hrs exposure", "result": "less than 0.1%"}, {"measurement": "increase in S and G2-M phases", "setting": "UOK-FLCN^+ cells", "result": 15, "unit": "%"}, {"measurement": "fold greater growth inhibitory sensitivity in 786-O mutant VHL versus wt VHL", "setting": "[9]", "result": "~3", "unit": "fold"}, {"measurement": "GI50", "setting": "[9]; Homo sapiens, 786-0, 72 h, read-out: GI50 in 786-O cells with mutant VHL", "result": "117 ± 37", "unit": "nM"}]}
